These results are taken from patent publication US6994868B2, “Compositions useful as inhibitors of ERK” (Vertex Pharmaceuticals Incorporated, priority 2000, dated 2006).

Each structure is given as a SMILES string. Some results are limits rather than exact numbers.

In general, Ki refers to the equilibrium dissociation constant of an inhibitor or competing ligand from its target.

Chain of activated ERK2 (P28482 whole entry): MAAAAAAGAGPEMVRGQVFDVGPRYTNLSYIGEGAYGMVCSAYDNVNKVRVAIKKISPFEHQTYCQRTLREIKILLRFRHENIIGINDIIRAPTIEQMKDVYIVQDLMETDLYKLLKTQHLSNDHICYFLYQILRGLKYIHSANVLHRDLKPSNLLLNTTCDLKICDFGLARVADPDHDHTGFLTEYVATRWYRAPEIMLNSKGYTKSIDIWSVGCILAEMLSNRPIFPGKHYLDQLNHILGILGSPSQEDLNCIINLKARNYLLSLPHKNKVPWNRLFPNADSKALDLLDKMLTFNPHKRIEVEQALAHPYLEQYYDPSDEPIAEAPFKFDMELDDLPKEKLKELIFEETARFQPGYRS

This assay addresses activated ERK2 (Homo sapiens, UniProt P28482). The assay can be described thus: ERK inhibition assay (spectrophotometric coupled-enzyme assay). In kind it is biochemical. To be noted: activated ERK2 10 nM, 65 μM ATP, 200 μM erktide peptide, 30° C., pH 7.5; read-out: ERK2 Inhibitory Activity (Ki class).
For the compound `COc1ccccc1CNC(=O)c1cc(-c2[nH]ncc2-c2cccc(F)c2)c[nH]1` [II-A-63], the Ki was < 1000 nM. Turning to `O=C(NCc1ccncc1)c1cc(-c2[nH]ncc2-c2cccc(F)c2)c[nH]1` [II-A-80], the Ki was < 1000 nM.

Take `O=C(NCc1ccccc1)c1cc(-c2[nH]ncc2-c2cccc(Cl)c2F)c[nH]1` [II-A-82]: the Ki is < 1000 nM.

Regarding `O=C(NCc1ccccc1)c1cc(-c2[nH]ncc2-c2ccc(F)c(F)c2)c[nH]1` [II-A-85], the Ki is < 1000 nM. Take `O=C(NCc1ccccc1)c1cc(-c2[nH]ncc2-c2cccc(F)c2F)c[nH]1` [II-A-103]: the Ki was < 1000 nM. `O=C(c1cc(-c2[nH]ncc2-c2ccccc2)c[nH]1)N1CCCC1` [II-A-134]: the Ki was in the range of 1000 to 5000 nM. The result for `COc1cccc(-c2cn[nH]c2-c2c[nH]c(C(=O)N3CCCC3)c2)c1` [II-A-144] reads 1000 to 5000 nM; that for `COc1cccc(-c2cn[nH]c2-c2c[nH]c(C(=O)NCc3cccnc3)c2)c1` [II-A-145], 1000 to 5000 nM. With `COc1cccc(-c2cn[nH]c2-c2c[nH]c(C(=O)NCc3ccco3)c2)c1` [II-A-147] the figure was 1000 to 5000 nM. As to `O=C(NCc1ccco1)c1cc(-c2[nH]ncc2-c2ccccc2)c[nH]1` [II-A-149], the Ki was 1000 to 5000 nM.

Turning to `O=C(c1cc(-c2[nH]ncc2-c2ccccc2)c[nH]1)N1CCOCC1` [II-A-150], the Ki was in the range of 1000 to 5000 nM. With `O=C(NCc1cccnc1)c1cc(-c2[nH]ncc2-c2ccccc2)c[nH]1` [II-A-153] the figure was 1000 to 5000 nM; with `COc1cccc(-c2cn[nH]c2-c2c[nH]c(C(=O)N(C)C)c2)c1` [II-A-154], 1000 to 5000 nM; with `CC(C)NC(=O)c1cc(-c2[nH]ncc2-c2ccccc2)c[nH]1` [II-A-158], 1000 to 5000 nM. For `COc1cccc(-c2cn[nH]c2-c2c[nH]c(C(=O)N3CCC(C)CC3)c2)c1` [II-A-163], the Ki was > 5000 nM.
